Patent US6727263B2, “Indole and 2,3-dihydroindole derivatives, their preparation and use” (H. Lundbeck A/S, priority 1997, dated 2004)
Counter-ions that a name gives are not always drawn. Like-named read-outs stand apart in the source and are kept apart here.

Legend:
[1] = target: T1, cloned 5-HT1A receptors (Homo sapiens, UniProt P08908); assay: Antagonism of 5-HT induced inhibition of forskolin induced cAMP accumulation; type: cell-based; conditions: cloned 5-HT1A receptors in transfected HeLa cells (HA7)
T1 construct: expressed in transfected cells; host or cells: HeLa cells (HA7)
T1 sequence (P08908 1-422): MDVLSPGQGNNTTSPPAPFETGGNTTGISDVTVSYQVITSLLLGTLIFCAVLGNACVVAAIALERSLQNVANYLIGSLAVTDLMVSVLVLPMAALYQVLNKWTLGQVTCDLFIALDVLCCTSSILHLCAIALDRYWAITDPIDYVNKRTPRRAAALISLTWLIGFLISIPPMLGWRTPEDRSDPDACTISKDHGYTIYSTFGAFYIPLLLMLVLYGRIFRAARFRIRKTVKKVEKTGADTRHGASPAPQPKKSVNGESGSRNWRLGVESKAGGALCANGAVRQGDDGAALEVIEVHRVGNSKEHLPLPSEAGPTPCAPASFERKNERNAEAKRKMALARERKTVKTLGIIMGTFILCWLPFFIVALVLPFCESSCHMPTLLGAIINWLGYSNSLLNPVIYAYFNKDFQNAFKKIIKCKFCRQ
Protocol: The assay was performed as a modification of the method described by Pauwels, P. J et al, Biochem. Pharmacol. 1993, 45, 375.

[2] = target: T2, human 5-HT1A receptors (Homo sapiens, UniProt P08908); assay: Inhibition of 3H-5-CT binding to human 5-HT1A receptors
T2 construct: expressed in transfected cells; host or cells: HeLa cells (HA7), used as cell homogenate
T2 sequence (P08908 1-422): T1 sequence (P08908 1-422)
Protocol: Inhibition of ^3H-5-CT Binding to Human 5-HT1A Receptors
Human 5-HT1A receptors (40 μg of cell homogenate) were incubated for 15 minutes at 37° C. in 50 mM Tris buffer at pH 7.7 in the presence of ^3H-5-CT. Non-specific binding was determined by including 10 μM of metergoline. The reaction was terminated by rapid filtration through Unifilter GF/B filters on a Tomtec Cell Harvester. Filters were counted in a Packard Top Counter.

[3] = test system: 3H-5-HT uptake into whole rat brain synaptosomes; assay: Inhibition of 3H-5-HT uptake into rat brain synaptosomes; type: biochemical; conditions: 3H-5-HT accumulation into whole rat brain synaptosomes, in vitro; read-out: Inhibition of serotonin reuptake IC50
Protocol: Inhibition of ^3H-5-HT Uptake Into Rat Brain Synaptosomes
Using this method the ability of drugs to inhibit the accumulation of ^3H-5-HT into whole rat brain synaptosomes is determined in vitro.

[4] = read-out: Inhibition of 3H-5-CT binding IC50, cloned human 5-HT1A receptors expressed in transfected HeLa cells (HA7), cell homogenate, 15 minutes at 37° C., pH 7.7

Row | Compound | melting point [°C] | IC50 [1] [nM] | IC50 [3] [nM] | further results
1 | Fc1ccc2[nH]cc(CCN3CCC(c4cccc5ccoc45)CC3)c2c1.O=C(O)C(=O)O | 191 to 194 |  |  | 
2 | Brc1ccc2[nH]cc(CCN3CCC(c4cccc5ccoc45)CC3)c2c1.O=C(O)C(=O)O | 153 to 157 |  |  | 
3 | Fc1ccc2[nH]cc(CCN3CCN(c4cccc5c4OCC5)CC3)c2c1.O=C(O)C(=O)O | 145 to 149 |  |  | 
4 | Clc1ccc2[nH]cc(CCN3CCN(c4cccc5ccsc45)CC3)c2c1.O=C(O)C(=O)O | 175.2 to 176.6 |  |  | 
5 | Clc1ccc2[nH]cc(CCN3CCN(c4cccc5c4SCC=C5)CC3)c2c1 | 152 to 153 |  |  | 
6 | Brc1ccc2[nH]cc(CCN3CCN(c4cccc5c4SCC=C5)CC3)c2c1 | 166 to 167 |  |  | 
7 | Brc1ccc2[nH]cc(CCN3CC=C(c4cccc5ccoc45)CC3)c2c1.O=C(O)C(=O)O | 185 to 194 |  |  | 
8 | CC1(C)Cc2cccc(N3CCN(CCc4c[nH]c5cc(Cl)ccc45)CC3)c2O1.O=C(O)/C=C/C(=O)O | 165 to 167 |  |  | 
9 | Clc1ccc2ccn(CCN3CCN(c4cccc5c4OCCO5)CC3)c2c1.O=C(O)C(=O)O | 234 to 235 |  |  | 
10 | Clc1ccc2c(ccn2CCN2CCN(c3cccc4c3OCCO4)CC2)c1.O=C(O)C(=O)O | 234 to 235 |  |  | 
11 | Fc1ccc2c(ccn2CCN2CCN(c3cccc4c3OCCO4)CC2)c1.O=C(O)C(=O)O | 230 to 231 |  |  | 
12 | O=C(O)C(=O)O.c1cc2c(c(N3CCN(CCn4ccc5ccccc54)CC3)c1)OCCO2 | 225 to 229 |  |  | 
13 | O=C(O)C(=O)O.c1cc2c(c(N3CCN(CCn4ccc5ccccc54)CC3)c1)OCC2 | 223 to 226 |  |  | 
14 | Clc1ccc2c(c1)C(CCN1CCN(c3cccc4c3OCCO4)CC1)CN2.O=C(O)C(=O)O (stereo not drawn) | 153 to 157 |  |  | 
15 | C=CCn1cc(CCN2CCN(c3cccc4c3OCCO4)CC2)c2ccccc21.O=C(O)C(=O)O | 187 to 190 |  |  | 
16 | C#CCn1cc(CCN2CCN(c3cccc4c3OCCO4)CC2)c2ccccc21.O=C(O)C(=O)O | 168 to 172 |  |  | 
17 | O=C(O)C(=O)O.c1ccc(CN2CC(CCN3CCN(c4cccc5c4OCCO5)CC3)c3ccccc32)cc1 (stereo not drawn) | 158 to 165 |  |  | 
18 | C=CCN1CC(CCN2CCN(c3cccc4c3OCCO4)CC2)c2ccccc21.O=C(O)C(=O)O (stereo not drawn) | 133 to 136 |  |  | 
19 | 3-[2-[4-(1,4-Benzodioxan-5-yl)Piperazin-1-yl]Ethyl]-6-Chloro-1H-Indole Hemifumarate [Compound 3a] |  | 500 | 5.3 | IC50 [2, 4]: 1.2 nM
20 | 3-[2-[4-(1,4-Benzodioxan-5-yl)piperazin-1-yl]ethyl]-5-methyl-1H-indole hemifumarate [Compound 1j] |  | 980 | 3.5 | IC50 [2, 4]: 14 nM

Row | Compound | melting point [°C] | IC50 [1] [nM] | IC50 [3] [nM] | further results
21 | 3-[2-[4-(1,4-Benzodioxan-5-yl)piperazin-1-yl]ethyl]-6-methyl-1H-indole hemifumarate [Compound 1k] |  | 580 | 18 | IC50 [2, 4]: 2 nM
22 | CC1(C)Cc2cccc(C3CCN(CCc4c[nH]c5cc(Cl)ccc45)CC3)c2O1 (as salt: oxalate) [Compound 1f, 6-Chloro-3-[2-[4-(2,2, -dimethyl-2,3-dihydrobenzofuran-7-yl)piperidin-1-yl]ethyl]-1H-indole oxalate] | 190 to 193 |  |  | 
23 | CC1(C)Cc2cccc(C3=CCN(CCc4c[nH]c5cc(Cl)ccc45)CC3)c2O1 (as salt: oxalate) [Compound 1g, 6-Chloro-3-[2-[4-(2,2,-dimethyl-2,3,-dihydrohydrobenzofuran-7-yl)-1,2,3,6-tetrahydro-1-pyridyl]ethyl]-1H-indole oxalate] | 200 to 204 |  |  | 
24 | COc1ccc2[nH]cc(CCN3CCN(c4cccc5c4OCCO5)CC3)c2c1 (as salt: oxalate) [Compound 1i, 3-[2-[4-(1,4-Benzodioxan-5-yl)piperazin-1-y]ethyl]-5-methoxy-1H-indole hemioxalate] | 189 to 196 |  |  | 
25 | Clc1ccc2[nH]cc(CCN3CCN(c4cccc5c4OCCO5)CC3)c2c1 [Compound 1a, 3-[2-[4-(1,4-Benzodioxan-5-yl)Piperazin-1-yl]Ethyl]-5-Chloro-1H-Indole Oxalate] |  | 2900 | 5 | IC50 [2]: 17 nM
26 | Cc1[nH]c2ccccc2c1CCN1CCN(c2cccc3c2OCCO3)CC1.O=C(O)C(=O)O [Compound 1c, 3-[2-[4-(1,4-Benzodioxan-5-yl)piperazin-1-yl]ethyl]-2-methyl-1H-indole oxalate] | 205 to 208 |  | 45 | IC50 [2]: 2.5 nM
27 | Cc1cc2c(c(C3CCN(CCc4c[nH]c5cc(Cl)ccc45)CC3)c1)OC(C)(C)C2.O=C(O)/C=C/C(=O)O [Compound 1d, 6-Chloro-3-[2-[4-(2,2,5-trimethyl-2,3-dihydrobenzofuran-7-yl)piperidin-1-yl]ethyl]-1H-indole fumarate] | 232 to 237 |  | 36 | IC50 [2]: 55 nM
28 | CC1(C)Cc2cccc(C3CCN(CCc4c[nH]c5cc(Cl)ccc45)CC3)c2O1 [Compound 1f, 6-Chloro-3-[2-[4-(2,2, -dimethyl-2,3-dihydrobenzofuran-7-yl)piperidin-1-yl]ethyl]-1H-indole oxalate] |  | 1800 | 5.9 | IC50 [2]: 6.1 nM
29 | CC1(C)Cc2cccc(C3=CCN(CCc4c[nH]c5cc(Cl)ccc45)CC3)c2O1 [Compound 1g, 6-Chloro-3-[2-[4-(2,2,-dimethyl-2,3,-dihydrohydrobenzofuran-7-yl)-1,2,3,6-tetrahydro-1-pyridyl]ethyl]-1H-indole oxalate] |  | 1800 | 3.8 | IC50 [2]: 2.8 nM
30 | COc1ccc2[nH]cc(CCN3CCN(c4cccc5c4OCCO5)CC3)c2c1 [Compound 1i, 3-[2-[4-(1,4-Benzodioxan-5-yl)piperazin-1-y]ethyl]-5-methoxy-1H-indole hemioxalate] |  | 620 | 6.8 | IC50 [2]: 6.9 nM
31 | Clc1cc2c(c(N3CCN(CCc4c[nH]c5cc(Cl)ccc45)CC3)c1)OCCO2.O=C(O)C(=O)O [Compound 1l, 6-Chloro-3-[2-[4-(7-chloro-1,4-benzodioxan-5-yl)piperazin-1-yl]ethyl]-1H-indole oxalate] | 237 to 238 |  | 7.7 | IC50 [2]: 12 nM
32 | Clc1ccc2c(CCN3CCN(c4c(Cl)ccc5c4OCCO5)CC3)c[nH]c2c1.O=C(O)C(=O)O [Compound 1m, 6-Chloro-3-[2-[4-(6-Chloro-1,4-benzodioxan-5-yl)piperazin-1-yl]ethyl]-1H-indole oxalate] | 216 to 217 |  | 57 | IC50 [2]: 99 nM
33 | Clc1ccc2c(CCN3CCN(c4cccc5c4OCC5)CC3)c[nH]c2c1.O=C(O)C(=O)O [Compound 1o, 6-Chloro-3-[2-[4-(2,3-dihydrobenzofuran-7-yl)piperazin-1-yl]ethyl]-1H-indole oxalate] | 205 to 207 | 3200 |  | 
34 | Clc1ccc2c(CCN3CCN(c4cccc5c4SCC=C5)CC3)c[nH]c2c1 [Compound 1t] | 178 to 179 |  |  | 
35 | Clc1ccc2c(CCN3CCN(c4cccc5c4SCCC5)CC3)c[nH]c2c1 [Compound 1t] |  | 5900 |  | 
36 | Clc1ccc2c(CCN3CCN(c4cccc5ccoc45)CC3)c[nH]c2c1 [Compound 1u, 3-[2-[4-(Benzofuran-7-yl)piperazin-1-yl]ethyl]-6-chloro-1H-indole] | 202 to 204 | 2000 |  | 
37 | Clc1ccc2c(CCN3CC=C(c4cccc5c4OCC5)CC3)c[nH]c2c1.O=C(O)C(=O)O [Compound 1x, 6-Chloro-3-[2-[4-(2,3-dihydrobenzofuran-7-yl)-1,2,3,6-tetrahydropyridin-1-yl]ethyl]-1H-indole oxalate] | 211 to 214 | 3000 |  | 
38 | CC1(C)Cc2cc(Cl)cc(N3CCN(CCc4c[nH]c5ccccc45)CC3)c2O1 [Compound 3b, 3-[2-[4-(5-Chloro-2,2-dimethyl-2,3-dihydrobenzofuran-7-yl)piperazin-1-yl]ethyl]-1H-indole hemifumarate] |  |  | 8.3 | IC50 [2, 4]: 3.6 nM
39 | CC1(C)COc2c(N3CCN(CCc4c[nH]c5cc(Cl)ccc45)CC3)cc(Cl)cc21 [Compound 3c, 6-Chloro-3-[2-[4-(5-chloro-3,3-dimethyl-2,3-dihydrobenzofuran-7-yl)piperazin-1-yl]ethyl]-1H-indole hemifumarate] |  | 2600 |  | 
40 | CN1CC(CCN2CCN(c3cccc4c3OCCO4)CC2)c2ccccc21 (stereo not drawn) [Compound 6a, 3-[2-[4-(1,4-Benzodioxan-5-yl)Piperazin-1-yl]Ethyl]-2,3-Dihydro-1-Methyl-1H-Indole Oxalate] |  | 100 |  | 
